Assay results as given in patent US11773078B2, “Furin inhibitors” (Glaxosmithkline Intellectual Property Development Limited, priority 2018, dated 2023).
Counter-ions that a name gives are not always drawn.

Columns and labels:
[1] = target: T1, furin (endogenous protease) in U20S cells (Homo sapiens, UniProt P09958); test: Furin cell-based assay (image-based, Golgi-targeted GFP with BMP10 furin/PCSK cleavage site); details: 24-hour incubation, read-out: furin golgi cell pXC50 (converted);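 further: Read-out is mean GFP fluorescence of Golgi puncta per cell by high-content imaging, retained when furin inhibited, over an eleven-point 0.00017–10 µM series, four-parameter fit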
T1 construct: the endogenous protease cleaves GFP; endogenous in cells; host or cells: U2OS cells transduced with a BacMam reporter
T1 sequence (P09958 108-794): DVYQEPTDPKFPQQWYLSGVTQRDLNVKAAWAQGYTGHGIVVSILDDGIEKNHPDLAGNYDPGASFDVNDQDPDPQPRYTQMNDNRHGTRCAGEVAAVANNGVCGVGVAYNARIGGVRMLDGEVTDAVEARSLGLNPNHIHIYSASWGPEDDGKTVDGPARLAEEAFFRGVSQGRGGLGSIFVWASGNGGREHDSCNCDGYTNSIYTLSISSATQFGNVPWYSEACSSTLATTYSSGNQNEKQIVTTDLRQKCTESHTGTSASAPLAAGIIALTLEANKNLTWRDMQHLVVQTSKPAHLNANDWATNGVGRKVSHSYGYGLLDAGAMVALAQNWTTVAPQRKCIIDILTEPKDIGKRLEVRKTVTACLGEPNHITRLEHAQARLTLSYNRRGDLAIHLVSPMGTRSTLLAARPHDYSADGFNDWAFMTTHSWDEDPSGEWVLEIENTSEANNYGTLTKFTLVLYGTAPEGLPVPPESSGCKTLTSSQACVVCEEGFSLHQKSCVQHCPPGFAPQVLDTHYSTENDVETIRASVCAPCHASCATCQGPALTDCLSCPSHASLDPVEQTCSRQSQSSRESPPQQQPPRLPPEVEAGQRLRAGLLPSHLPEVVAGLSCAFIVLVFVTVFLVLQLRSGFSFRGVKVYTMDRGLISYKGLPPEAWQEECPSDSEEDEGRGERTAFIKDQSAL

[2] = target: T2, Furin (108-574-Tev-Flag-His) enzyme (Homo sapiens, UniProt P09958); test: Furin enzyme assay; format: biochemical; details: for IC50: read-out: furin enzyme pIC50 (converted)
T2 construct: Furin (108-574-Tev-Flag-His) enzyme was expressed and purified from CHO cells; TEV cleavage site (C); FLAG (C); His (C); made in house; host or cells: CHO cells
T2 sequence (P09958 108-574): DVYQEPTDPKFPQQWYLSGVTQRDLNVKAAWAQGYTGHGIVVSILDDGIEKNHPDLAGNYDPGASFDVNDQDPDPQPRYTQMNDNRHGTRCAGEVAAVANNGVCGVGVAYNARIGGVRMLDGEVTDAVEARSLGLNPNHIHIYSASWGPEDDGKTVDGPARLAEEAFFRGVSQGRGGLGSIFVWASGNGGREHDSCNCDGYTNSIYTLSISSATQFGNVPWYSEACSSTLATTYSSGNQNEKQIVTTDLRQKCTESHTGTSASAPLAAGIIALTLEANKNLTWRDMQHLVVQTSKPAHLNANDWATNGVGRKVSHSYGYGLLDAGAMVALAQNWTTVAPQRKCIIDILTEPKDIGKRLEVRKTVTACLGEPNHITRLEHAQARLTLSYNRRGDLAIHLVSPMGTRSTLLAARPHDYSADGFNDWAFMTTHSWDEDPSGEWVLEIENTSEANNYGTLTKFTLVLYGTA
In short: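 CHO-expressed, purified furin construct at 40 pM in 100 mM HEPES pH7.5, 1 mM CaCl2, 0.005% Triton X-100. Eleven-point 1:3 series, 0.00017–10 μM final, incubated 2 h at room temperature and read on Envision. pXC50 from four-parameter fit.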

`CC(O)CCN1CCN(c2ncc(Oc3cc(CN4CCC(CC(=O)O)CC4)cc(-c4cc(Cl)cc(Cl)c4)n3)cn2)CC1` (stereo not shown) [Example 237, 2-(1-((2-(3,5-Dichlorophenyl)-6-((2-(4-(3-hydroxybutyl)piperazin-1-yl)pyrimidin-5-yl)oxy)pyridin-4-yl)methyl)piperidin-4-yl)acetic acid] was tested. Which EC50 [1] did it give?
Its EC50 is 3.16 nM.

And the “furin enzyme pIC50” value [2]?
The value was 8.7.

How did the EC50 [1] turn out when `COC(=O)NCC1CCN(Cc2cc(Oc3ccc(N4CCNCC4)nc3)nc(-c3cc(Cl)cc(Cl)c3)c2)CC1` [Example 76, Methyl 1(1-((2-(3,5-dichlorophenyl)-6-((6-(piperazin-1-yl)pyridin-3-yl)oxy)pyridin-4-yl)methyl)piperidin-4-yl)methyl)carbamate, 4 hydrochloride] was run?
Its EC50 is 10 nM.

What about the “furin enzyme pIC50” value [2] of the same compound?
The value was 8.4.

Which EC50 [1] does the source give for `CCN1CCCN(c2ncc(Oc3cc(CN4CCC(CC(=O)O)CC4)cc(-c4cc(Cl)cc(Cl)c4)n3)cn2)CC1` [Example 230, 2-(1-((2-(3,5-dichlorophenyl)-6-((2-(4-ethyl-1,4-diazepan-1-yl)pyrimidin-5-yl)oxy)pyridin-4-yl)methyl)piperidin-4-yl)acetic acid] here?
The EC50 was 10 nM.

And the “furin enzyme pIC50” value [2]?
The value was 8.6.

What does the source list for `NCCNc1ccc(Oc2cc(CN3CCOCC3)cc(-c3cc(Cl)cc(Cl)c3)c2)cn1` [Example 99, N^1-(5-((3′,5′-Dichloro-5-(morpholinomethyl))-[1,1′-biphenyl]-3-yl)oxy)pyridin-2-yl)ethane-1,2-diamine, 3 hydrochloride]?
EC50 [1]: 251 nM; furin enzyme pIC50 [2]: 7.2

`COC(=O)NCC1CCN(Cc2cc(Oc3cnc(N4CCN(C(C)CCC(=O)O)CC4)nc3)nc(-c3cc(Cl)cc(Cl)c3)c2)CC1` (stereo not shown) [Example 222, 4-(4-(5-((6-(3,5-dichlorophenyl)-4-((4-(((methoxycarbonyl)amino)methyl)piperidin-1-yl)methyl)pyridin-2-yl)oxy)pyrimidin-2-yl)piperazin-1-yl)pentanoic acid] was tested. Which EC50 [1] did it give?
The EC50 was 25.1 nM.

What about the “furin enzyme pIC50” value [2] of the same compound?
Its value is 10.2.

With `CC(CCN1CCN(c2ncc(Oc3cc(CN4CCC(CCO)CC4)cc(-c4cc(Cl)cc(Cl)c4)n3)cn2)CC1)C(=O)O` (stereo not shown) [Example 57, 4-(4-(5-((6-(3,5-dichlorophenyl)-4-((4-(2-hydroxyethyl)piperidin-1-yl)methyl)pyridin-2-yl)oxy)pyrimidin-2-yl)piperazin-1-yl)-2-methylbutanoic acid] as the compound, how does the EC50 [1] read?
The EC50 was 10 nM.

What about the “furin enzyme pIC50” value [2] of the same compound?
Its value is 10.3.

Which EC50 [1] does the source give for `CC(=O)NCC1CCN(Cc2cc(Oc3cnc(N4CC5CCC(C4)N5C)nc3)nc(-c3cc(Cl)cc(Cl)c3)c2)CC1` [Example 71, N-((1-((2-(3,5-dichlorophenyl)-6-((2-(8-methyl-3,8-diazabicyclo[3.2.1]octan-3-yl)pyrimidin-5-yl)oxy)pyridin-4-yl)methyl)piperidin-4-yl)methyl)acetamide] here?
Its EC50 is 1.58 nM.

And the IC50 [2]?
The IC50 was 0.2 nM.

`CC(=O)N[C@@H]1[C@@H]2CN(Cc3cc(Oc4cnc(N5CCCN(C)CC5)nc4)nc(-c4cc(Cl)cc(Cl)c4)c3)C[C@@H]21` [Example 154, N-((1R,5S,6r)-3-((2-(3,5-dichlorophenyl)-6-((2-(4-methyl-1,4-diazepan-1-yl)pyrimidin-5-yl)oxy)pyridin-4-yl)methyl)-3-azabicyclo[3.1.0]hexan-6-yl)acetamide] was tested. Which EC50 [1] did it give?
Its EC50 is 50.1 nM.

And the “furin enzyme pIC50” value [2]?
The value was 7.8.

Which results are given for `CC(=O)NCC1CCN(Cc2cc(Oc3cnc(N4CC5CCC(C4)N5)nc3)nc(-c3cc(Cl)cc(Cl)c3)c2)CC1` [Example 335, N-((1-((2-((2-(3,8-diazabicyclo[3.2.1]octan-3-yl)pyrimidin-5-yl)oxy)-6-(3,5-dichlorophenyl)pyridin-4-yl)methyl)piperidin-4-yl)methyl)acetamide]?
EC50 [1]: 1.26 nM; furin enzyme pIC50 [2]: 9.2

With `CC(=O)NCC1CCN(Cc2cc(Oc3cnc(N4CCN(CCC(N)=O)CC4)nc3)cc(-c3cc(Cl)cc(Cl)c3)c2)CC1` [Example 170, 3-(4-(5-((5-((4-(acetamidomethyl)piperidin-1-yl)methyl)-3′,5′-dichloro-[1,1′-biphenyl]-3-yl)oxy)pyrimidin-2-yl)piperazin-1-yl)propanamide] as the compound, how does the EC50 [1] read?
The EC50 was 12.6 nM.

What about the IC50 [2] of the same compound?
Its IC50 is 0.794 nM.

What does the source list for `CN1C[C@@H]2C[C@H]1CN2c1cnc(Oc2cc(CN3CCC(CC(=O)O)CC3)cc(-c3cc(Cl)cc(Cl)c3)n2)cn1` [Example 346, 2-(1-((2-(3,5-dichlorophenyl)-6-((5-((1S,4S)-5-methyl-2,5-diazabicyclo+2.2.1+heptan-2-yl)pyrazin-2-yl)oxy)pyridin-4-yl)methyl)piperidin-4-yl)acetic acid]?
EC50 [1]: 12.6 nM; furin enzyme pIC50 [2]: 8.5

What does the source list for `CNC(=O)NCC1CCN(Cc2cc(Oc3cnc(N4CCN(CCO)CC4)nc3)nc(-c3cc(Cl)cc(Cl)c3)c2)CC1` [Example 47, 1-((1-((2-(3,5-Dichlorophenyl)-6-((2-(4-(2-hydroxyethyl)piperazin-1-yl)pyrimidin-5-yl)oxy)pyridin-4-yl)methyl)piperidin-4-yl)methyl)-3-methylurea, 4 hydrochloride]?
EC50 [1]: 3.98 nM; furin enzyme pIC50 [2]: 8.9

Which results are given for `CN1CCN(c2ncc(Oc3cc(CN4CC5CC(CC(=O)O)CC5C4)cc(-c4cc(Cl)cc(Cl)c4)n3)cn2)CC1` (stereo not shown) [Example 129, 2-(2-((2-(3,5-dichlorophenyl)-6-((2-(4-methylpiperazin-1-yl)pyrimidin-5-yl)oxy)pyridin-4-yl)methyl)octahydrocyclopenta[c]pyrrol-5-yl)acetic acid]?
EC50 [1]: 79.4 nM; furin enzyme pIC50 [2]: 8.2

What does the source list for `C[C@@H](O)CN1CCN(c2ncc(Oc3cc(CN4CCC(OCC(=O)O)CC4)cc(-c4cc(Cl)cc(Cl)c4)n3)cn2)CC1` [Example 317, (R)-2-((1-((2-(3,5-dichlorophenyl)-6-((2-(4-(2-hydroxypropyl)piperazin-1-yl)pyrimidin-5-yl)oxy)pyridin-4-yl)methyl)piperidin-4-yl)oxy)acetic acid]?
EC50 [1]: 15.8 nM; furin enzyme pIC50 [2]: 9.2

`CNC(=O)OCC1CCN(Cc2cc(Oc3cnc(N4CCN(C5CC(C(=O)O)C5)CC4)nc3)nc(-c3cc(Cl)cc(Cl)c3)c2)CC1` (stereo not shown) [Example 211, 3-(4-(5-((6-(3,5-dichlorophenyl)-4-((4-(((methylcarbamoyl)oxy)methyl)piperidin-1-yl)methyl)pyridin-2-yl)oxy)pyrimidin-2-yl)piperazin-1-yl)cyclobutanecarboxylic acid] was tested. Which EC50 [1] did it give?
Its EC50 is 25.1 nM.

And the “furin enzyme pIC50” value [2]?
The value was 10.1.

Which EC50 [1] does the source give for `CNCc1cc(Oc2ccc(N3C[C@@H]4C[C@H]3CN4)nc2)cc(-c2cc(Cl)cc(Cl)c2)c1` [Example 202, 1-(5-((6-((1S,4S)-2,5-diazabicyclo[2.2.1]heptan-2-yl)pyridin-3-yl)oxy)-3′,5′-dichloro-[1,1′-biphenyl]-3-yl)-N-methylmethanamine] here?
Its EC50 is 39.8 nM.

What about the “furin enzyme pIC50” value [2] of the same compound?
The value was 8.6.

How did the EC50 [1] turn out when `CC(=O)NCC1CCN(Cc2cc(Oc3ccc(N4CCN([C@H]5C[C@@H](NS(C)(=O)=O)C5)CC4)nc3)nc(-c3cc(Cl)cc(Cl)c3)c2)CC1` [Example 27, N-((1-((2-(3,5-Dichlorophenyl)-6-((6-(4-((cis)-3-(methylsulfonamido)cyclobutyl)piperazin-1-yl)pyridin-3-yl)oxy)pyridin-4-yl)methyl)piperidin-4-yl)methyl)acetamide] was run?
The EC50 was 3.16 nM.

What about the “furin enzyme pIC50” value [2] of the same compound?
The value was 9.6.

Which results are given for `CC(=O)NCC1CCN(Cc2cc(-c3cc(Cl)cc(Cl)c3)nc(Oc3cnc(N4CCN(CCC(C)C(=O)O)CC4)nc3)c2F)CC1` (stereo not shown) [Example 381, 4-(4-(5-((4-((4-(acetamidomethyl)piperidin-1-yl)methyl)-6-(3,5-dichlorophenyl)-3-fluoropyridin-2-yl)oxy)pyrimidin-2-yl)piperazin-1-yl)-2-methylbutanoic acid]?
EC50 [1]: 10 nM; furin enzyme pIC50 [2]: 8.9

`CC(=O)NCC1CCN(Cc2cc(Oc3ccc(N4CCN(CCC(C)S(C)(=O)=O)CC4)nc3)nc(-c3cc(Cl)cc(Cl)c3)c2)CC1` (stereo not shown) [Example 218, N-((1-((2-(3,5-dichlorophenyl)-6-((6-(4-(3-(methylsulfonyl)butyl)piperazin-1-yl)pyridin-3-yl)oxy)pyridin-4-yl)methyl)piperidin-4-yl)methyl)acetamide] was tested. Which EC50 [1] did it give?
Its EC50 is 2 nM.

And the “furin enzyme pIC50” value [2]?
The value was 10.1.

With `CC(O)CC1CCN(Cc2cc(Oc3cnc(N4CCN(C)CC4)nc3)nc(-c3cc(Cl)cc(Cl)c3)c2)CC1` (stereo not shown) [Example 138, 1-(1-((2-(3,5-dichlorophenyl)-6-((2-(4-methylpiperazin-1-yl)pyrimidin-5-yl)oxy)pyridin-4-yl)methyl)piperidin-4-yl)propan-2-ol] as the compound, how does the EC50 [1] read?
The EC50 was 7.94 nM.

What about the “furin enzyme pIC50” value [2] of the same compound?
The value was 9.1.

How did the EC50 [1] turn out when `O=C(O)CC1CCN(Cc2cc(Oc3cnc(N4CCNCC(F)C4)nc3)nc(-c3cc(Cl)cc(Cl)c3)c2)CC1` (stereo not shown) [Example 399, 2-(1-((2-(3,5-dichlorophenyl)-6-((2-(6-fluoro-1,4-diazepan-1-yl)pyrimidin-5-yl)oxy)pyridin-4-yl)methyl)piperidin-4-yl)acetic acid] was run?
Its EC50 is 39.8 nM.

And the “furin enzyme pIC50” value [2]?
Its value is 8.8.

What does the source list for `NC1(CCO)CCN(c2ncc(Oc3cc(CN4CCC(CC(=O)O)CC4)cc(-c4cc(Cl)cc(Cl)c4)n3)cn2)CC1` [Example 124, 2-(1-((2-((2-(4-amino-4-(2-hydroxyethyl)piperidin-1-yl)pyrimidin-5-yl)oxy)-6-(3,5-dichlorophenyl)pyridin-4-yl)methyl)piperidin-4-yl)acetic acid]?
EC50 [1]: 20 nM; furin enzyme pIC50 [2]: 8.8

With `CN1CCN(c2ncc(Oc3cc(-c4cc(Cl)cc(Cl)c4)cc(CN4CCC(CC(=O)O)CC4)c3F)cn2)CC1` [Example 376, 2-(1-((3′,5′-dichloro-4-fluoro-5-((2-(4-methylpiperazin-1-yl)pyrimidin-5-yl)oxy)-[1,1′-biphenyl]-3-yl)methyl)piperidin-4-yl)acetic acid] as the compound, how does the EC50 [1] read?
The EC50 was 25.1 nM.

And the “furin enzyme pIC50” value [2]?
The value was 8.7.
